Consider two molecules from US9315483B2, “Synthesis of deuterated catechols and benzo[D][1,3]dioxoles and derivatives thereof” (Concert Pharmaceuticals, Inc., priority 2007, dated 2016).

The target in one data set is CYP2D6 (Homo sapiens, UniProt P10635). As to the kind of experiment: in vitro. As for the experimental part: Method: This study was conducted according to the procedure established by Bertelsen et al for paroxetine. See Bertelsen K M, Venkatakrishnan K, von Moltke L L, Obach S, Greenblatt, D J. Apparent mechanism-based inhibition of human CYP2D6 in vitro by paroxetine: comparison with fluoxetine and quinidine. Drug Met Disp 2003; 31:289-293. Briefly, the test articles were pre-incubated with human liver microsomes for various times followed by the addition of dextromethorphan, a CYP2D6 substrate. The formation of dextrorphan, a CYP2D6-specific metabolite of dextromethorphan, was monitored as a measure of CYP2D6 activity.

A short description of data set [1]: in vitro. On the procedure: (§1) Method: Test Compound A was evaluated at a concentration of 1 μM for apparent metabolic stability by the in vitro t1/2 method described by Obach et al. See Obach R S, Baxter J G, Liston T E, Silber B M, Jones B C, MacIntyre F, et al. The prediction of human pharmacokinetic parameters from preclinical and in vitro metabolism data. JPET 1997; 283:46-58.

Data set [2] is described as follows: in vitro. On the procedure:
as §1
This is another data set of the same source.

The conditions of data set [3]: for vasomotor symptoms (VMS); expected.
Data set [4] deals with human cDNA-expressed CYP2D6 (Homo sapiens, UniProt P10635). Nature of the data set: Drug-drug interaction potential with tamoxifen: formation of endoxifen from N-desmethyl TAM after pre-incubation with CYP2D6. The source says:
Objective: The objective of this study was to determine the potential for the deuterated paroxetine, (3S,4R)-3-((2,2-d2-benzo[d][1,3]dioxol-5-yloxy)methyl)-4-(4-fluorophenyl)piperidine, HCl salt-hemihydrate, to inhibit the formation of endoxifen using human cDNA-expressed CYP2D6 as compared with paroxetine. The deuterated paroxetine, (3S,4R)-3-((2,2-d2-benzo[d][1,3]dioxol-5-yloxy)methyl)-4-(4-fluorophenyl)piperidine, HCl salt-hemihydrate, will be referred to as “Test Compound A” in the following examples and the figures.
Method: Test Compound A was pre-incubated for 20 min at various concentrations with human cDNA-expressed CYP2D6 (500 pmol/mL) in the presence of NADPH, after which aliquots of the reaction mixture were diluted 1:10 in buffer containing NADPH. N-desmethyl TAM (50 μM) was then added to the diluted pre-incubation mixtures. After 45 min of incubation, endoxifen concentrations were determined by LC-MS/MS.

Bounds are passed on as bounds.

Chain of CYP2D6 (P10635 whole entry): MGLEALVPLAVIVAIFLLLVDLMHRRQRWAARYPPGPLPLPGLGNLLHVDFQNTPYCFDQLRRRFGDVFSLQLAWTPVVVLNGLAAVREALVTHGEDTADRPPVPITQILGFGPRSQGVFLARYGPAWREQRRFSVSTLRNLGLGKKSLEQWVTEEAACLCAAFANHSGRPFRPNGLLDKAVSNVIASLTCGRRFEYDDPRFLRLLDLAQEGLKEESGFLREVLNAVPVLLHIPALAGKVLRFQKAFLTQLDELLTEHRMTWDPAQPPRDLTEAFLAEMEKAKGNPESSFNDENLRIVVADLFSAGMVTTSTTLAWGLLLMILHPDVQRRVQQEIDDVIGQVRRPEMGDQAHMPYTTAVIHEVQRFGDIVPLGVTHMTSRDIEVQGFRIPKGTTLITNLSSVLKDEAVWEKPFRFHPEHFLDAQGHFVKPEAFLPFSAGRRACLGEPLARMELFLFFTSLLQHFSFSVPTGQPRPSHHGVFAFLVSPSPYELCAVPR
Chain of human cDNA-expressed CYP2D6 (P10635 whole entry): as above

`Fc1ccc([C@@H]2CCNC[C@H]2COc2ccc3c(c2)OCO3)cc1` [Paroxetine, paroxetine, reference compound]: at CYP2D6 (human, microsomes), the KI (inactivation) is 1960 nM and the inactivation rate constant (kinact) (commonly the rate constant of inactivation at saturating inhibitor) was 0.00133 s⁻¹. For the same molecule, the “inhibition of CYP2D6, expressed as the percentage of dextrorphan formation relative to control” value at CYP2D6 (microsomes) is “concentration- and time-dependent inhibition”. Further, in “in vitro [1]” (human, microsomes), the half-life (commonly the time needed for the level to fall by half in the phase considered) at 1 μM was 49 ± 7.8 min. This molecule had a half-life at 1 μM in the data set “in vitro [2]” (rat, microsomes) of 20.4 ± 2.1 min.
Take `Cl.Cl.O.[2H]C1([2H])Oc2ccc(OC[C@@H]3CNCC[C@H]3c3ccc(F)cc3)cc2O1.[2H]C1([2H])Oc2ccc(OC[C@@H]3CNCC[C@H]3c3ccc(F)cc3)cc2O1` [Test Compound A, (3S,4R)-3-((2,2-d2-benzo[d][1,3]dioxol-5-yloxy)methyl)-4-(4-fluorophenyl)piperidine, HCl salt-hemihydrate]: the “CYP2D6 activity (percentage of dextrorphan formation relative to control)” value on CYP2D6 (0-10 μM concentration range) is reported as “remained similar to that of control”. Further, at CYP2D6 (as the concentration approached 25 μM), the “inhibition of CYP2D6” value is on record as “Some inhibition”. The “mechanism-based inactivation of CYP2D6” value on CYP2D6 (at concentrations up to 10 μM) was “does not exhibit mechanism-based inactivation”. In addition, on CYP2D6 (human liver microsomes), the “kINACT for CYP2D6 inactivation” value is recorded as “could not be calculated”. For the same molecule, the “maximum plasma concentration in humans” value in data set [3] was not above 30 nM. Also, the t1/2 turned out to be 20.9 ± 2.0 min in “in vitro [1]” (Human liver microsomes 0.5 mg/mL, 1 μM) and 15.5 ± 1.6 min in the data set “in vitro [2]” (Rat liver microsomes 0.5 mg/mL, 1 μM). Besides, the “mean relative amount remaining at the end of 30 minutes incubation” value in the data set “in vitro [1]” (human hepatic microsomes 0.5 mg/mL, 1 μM, n=4) was 37.2±3.9%; in “in vitro [2]” (rat hepatic microsomes 0.5 mg/mL, 1 μM, n=4), 25.5±4.3%. For the same molecule, the figures for the “t1/2 less than the corresponding value for paroxetine” value in “in vitro [1]” (human liver microsomes) and in the data set “in vitro [2]” (rat liver microsomes) were approximately 57% and “approximately 24%”, respectively. Also, the “endoxifen produced in the presence of Test Compound A relative to in the presence of paroxetine” value in data set [4] (highest concentration (25 μM)) is given as 12 fold. For the same molecule, the “change in the formation of endoxifen from N-desmethyl tamoxifen” value in data set [4] (over the range of concentrations tested (0-25 μM), 20 min pre-incubation with NADPH, N-desmethyl TAM 50 μM, 45 min) is “little to no change”.
